± gives the standard deviation of the averaged measurements.
Tested on: HepaRG
Assay: LDH release cytotoxicity, % of total lysis control; higher = more cytotoxic
Conditions: 48 h
Procedure, shortened: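 HepaRG cells from a single lot were plated on collagen I-coated 96-well plates and treated in duplicate for 48 h with eight-point half-log series of test chemicals, starting at 100 µM, in serum-free induction medium containing 0.5% DMSO. Total lysis wells were given 0.1% Triton X. LDH released into 50 µL of spent medium was measured as resorufin fluorescence with CytoTox-ONE on a Tecan Safire. Percent cytotoxicity was normalized to on-plate vehicle and total lysis controls and then averaged across duplicates.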

Row | Structure (SMILES) | LDH release cytotoxicity (0.03162 µM) [%] | LDH release cytotoxicity (0.1 µM) [%] | LDH release cytotoxicity (0.3162278 µM) [%] | LDH release cytotoxicity (1 µM) [%] | LDH release cytotoxicity (3.16228 µM) [%] | LDH release cytotoxicity (10 µM) [%] | LDH release cytotoxicity (31.6228 µM) [%] | LDH release cytotoxicity (100 µM) [%] | further results
1 | O=[N+]([O-])C(CO)(CO)CO [2-(Hydroxymethyl)-2-nitro-1,3-propanediol] | 0.0153 ± 0.39 | -1.5 ± 0.4 | -1.73 ± 0.99 | -0.843 ± 0.29 | -0.932 ± 1.1 | -1.24 ± 1.2 | -0.797 ± 0.24 | 0.918 ± 1.3 | –
2 | CCCCCCC(C=O)=Cc1ccccc1 [2-(Phenylmethylene)octanal] | -1.15 ± 0.14 | -2.83 ± 0.43 | -1.02 ± 0.77 | -1.91 ± 0.42 | -1.53 ± 0.26 | -0.899 ± 0.63 | -0.688 ± 1.8 | -0.668 ± 0.88 | –
3 | N#CSCSc1nc2ccccc2s1 [2-(Thiocyanomethylthio)benzothiazole] | -0.587 ± 0.32 | -0.847 ± 0.58 | -0.155 ± 0.13 | -0.646 ± 0.61 | 0.021 ± 0.2 | -0.312 ± 0.2 | -0.754 ± 0.77 | 1.03 ± 0.038 | –
4 | Nc1ccc2c(c1)C(=O)c1ccccc1C2=O [2-Aminoanthraquinone] | -1.78 ± 0.3 | -1.65 ± 0.022 | -1.65 ± 0.11 | -1.44 ± 0.32 | -1.62 ± 0.56 | -1.05 ± 0.29 | -1.21 ± 0.022 | -0.125 ± 0.23 | –
5 | COc1ccccc1N [2-Anisidine] | -1.27 ± 0.34 | -0.978 ± 0.2 | -0.111 ± 0.059 | -0.865 ± 1.6 | -1.04 ± 0.64 | 0.222 ± 0.33 | 0.835 ± 0.33 | 4.39 ± 0.47 | –
6 | CCC(C)N=O (configuration not stated) [2-Butanone oxime] | – | – | – | – | – | – | – | – | LDH release cytotoxicity (0.02261 µM): 0.0542 ± 0.017%; LDH release cytotoxicity (0.0715 µM): -0.457 ± 0.27%; LDH release cytotoxicity (0.2261029 µM): -1.06 ± 1%; LDH release cytotoxicity (0.715 µM): -1.57 ± 0.89%; LDH release cytotoxicity (2.26103 µM): -1.04 ± 0.2%; LDH release cytotoxicity (7.15 µM): -1.22 ± 0.13%; LDH release cytotoxicity (22.6103 µM): -1.08 ± 0.69%; LDH release cytotoxicity (71.5 µM): 0.052 ± 1%
7 | CCCCOCCO [2-Butoxyethanol] | -2.12 ± 0.86 | -0.886 ± 1 | -1.1 ± 1.1 | -2.21 ± 0.073 | -1.06 ± 0.48 | -0.332 ± 0.52 | -0.824 ± 0.64 | 1.02 ± 0.18 | –
8 | O=C(CCl)c1ccccc1 [2-Chloroacetophenone] | -1 ± 0.077 | -0.706 ± 0.44 | 0.0478 ± 0.81 | -0.336 ± 0.2 | -0.414 ± 0.23 | 0.0717 ± 0.49 | 1.4 ± 0.058 | 17.7 ± 0.94 | –
9 | OCCCl [2-Chloroethanol] | -1.15 ± 0.41 | -1.03 ± 0.86 | -1.59 ± 0.33 | -1.39 ± 0.77 | -1.15 ± 0.39 | -0.492 ± 0.48 | -0.514 ± 0.24 | 4.05 ± 0.92 | –
10 | Oc1ccccc1Cl [2-Chlorophenol] | -2.95 ± 2.4 | -4.22 ± 0.094 | -4.63 ± 0.13 | -4.14 ± 0.96 | -3.68 ± 0.21 | -3.65 ± 0.22 | -2.05 ± 0.13 | 1.5 ± 0.076 | –
11 | Cc1ccccc1Cl [2-Chlorotoluene] | -1.99 ± 0.36 | -1.94 ± 0.73 | -2.27 ± 0.5 | -1.84 ± 0.56 | -2.6 ± 0.59 | -1.26 ± 0.43 | -0.387 ± 0.48 | 0.838 ± 0.49 | –
12 | CCOCCO [2-Ethoxyethanol] | -0.38 ± 0.81 | 0.655 ± 1 | -0.174 ± 0.26 | 0.482 ± 0.056 | 0.0895 ± 0.63 | 0.267 ± 1.2 | 0.257 ± 0.32 | 1.46 ± 0.97 | –
13 | CCCCC(CC)CO (configuration not stated) [2-Ethyl-1-hexanol] | – | – | – | – | – | – | – | – | LDH release cytotoxicity (0.0320971 µM): -0.547 ± 0.26%; LDH release cytotoxicity (0.1015 µM): -0.771 ± 0.15%; LDH release cytotoxicity (0.320971 µM): -0.413 ± 0.19%; LDH release cytotoxicity (1.015 µM): -0.597 ± 0.57%; LDH release cytotoxicity (3.2097118 µM): 0.185 ± 0.13%; LDH release cytotoxicity (10.15 µM): 0.421 ± 0.39%; LDH release cytotoxicity (32.0971 µM): 0.242 ± 0.43%; LDH release cytotoxicity (101.5 µM): 0.842 ± 0.13%
14 | CCCCC(CC)C(=O)O (configuration not stated) [2-Ethylhexanoic acid] | – | – | – | – | – | – | – | – | LDH release cytotoxicity (0.0327296 µM): -0.279 ± 0.2%; LDH release cytotoxicity (0.1035 µM): -1.03 ± 0.49%; LDH release cytotoxicity (0.327296 µM): -1.23 ± 0.14%; LDH release cytotoxicity (1.035 µM): -1.42 ± 0.82%; LDH release cytotoxicity (3.27296 µM): -1.45 ± 0.089%; LDH release cytotoxicity (10.35 µM): -1.29 ± 0.7%; LDH release cytotoxicity (32.729574 µM): -1.58 ± 0.37%; LDH release cytotoxicity (103.5 µM): -0.99 ± 0.68%

Reference: the supplement of paper PMC7840683
